The IC50 is the concentration at which inhibition is half-maximal. Low values mean greater potency in that assay, high ones weaker potency in that assay.

Molecules are shown by their SMILES.

These results are taken from US10894797B2, “Fused tricyclic ring derivatives as SRC homology-2 phosphatase inhibitors” (Nikang Therapuetics, Inc., priority 2018, dated 2021).

The experiment has as its target SHP2 (Homo sapiens (Human), UniProt Q06124). The experiment can be described thus: SHP2 allosteric inhibition assay (DiFMUP substrate, bisphos-IRS1 peptide activation). Format: biochemical. The settings on record: 0.33 nM SHP2, 0.5 μM bisphos-IRS1 peptide, 100 uM DiFMUP, room temperature. Summed up:
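SHP2 (0.33 nM) preincubated 30-60 min at room temperature with 0.5 μM bisphos-IRS1 peptide and compound in pH 7.2 HEPES buffer with 5 mM DTT. Reaction started with 100 uM DiFMUP (final); fluorescence (340/450 nm) read every 5 min for 30 min, initial rates fitted to give normalized IC50.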

SHP2, sequence (Q06124 whole entry): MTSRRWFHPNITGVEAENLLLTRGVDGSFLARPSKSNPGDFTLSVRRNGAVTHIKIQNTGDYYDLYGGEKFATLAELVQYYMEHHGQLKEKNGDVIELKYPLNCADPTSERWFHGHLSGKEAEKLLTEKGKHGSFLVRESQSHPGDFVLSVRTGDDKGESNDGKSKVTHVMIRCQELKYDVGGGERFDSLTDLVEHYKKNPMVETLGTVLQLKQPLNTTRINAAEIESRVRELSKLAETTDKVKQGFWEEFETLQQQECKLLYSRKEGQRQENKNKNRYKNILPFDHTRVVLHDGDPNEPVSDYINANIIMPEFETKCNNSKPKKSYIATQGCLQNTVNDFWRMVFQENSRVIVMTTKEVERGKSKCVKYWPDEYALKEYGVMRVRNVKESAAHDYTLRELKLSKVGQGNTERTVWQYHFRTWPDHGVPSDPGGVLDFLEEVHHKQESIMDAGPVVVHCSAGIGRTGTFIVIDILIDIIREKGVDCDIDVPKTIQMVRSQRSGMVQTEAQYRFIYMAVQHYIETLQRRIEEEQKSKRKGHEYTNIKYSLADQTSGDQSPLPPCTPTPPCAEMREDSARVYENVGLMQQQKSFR

Take `C[C@@H]1OCC2(CCN(c3ncc(Sc4ccnc5c4OC[C@@H]4C[C@@H](n6cccn6)CN54)nc3CO)CC2)[C@@H]1N` [Compound 25, (6-(((6aS,8R)-8-(1H-pyrazol-1-yl)-6a,7,8,9-tetrahydro-6H-pyrido[3,2-b]-pyrrolo[1,2-d][1,4]oxazin-4-yl)thio)-3-((3 S,4S)-4-amino-3-methyl-2-oxa-8-azaspiro[4.5]decan-8-yl)pyrazin-2-yl)methanol]: the IC50 worked out at 11 nM.

Turning to `C[C@@H]1OCC2(CCN(c3ncc(Sc4ccnc5c4OC[C@H]4COCCN54)nc3CO)CC2)[C@@H]1N` [Compound 26, (3-((3S,4S)-4-amino-3-methyl-2-oxa-8-azaspiro[4.5]decan-8-yl)-6-(((R)-6a,7,9,10-tetrahydro-6H-[1,4]oxazino[4,3-d]pyrido[3,2-b][1,4]oxazin-4-yl)thio)pyrazin-2-yl)methanol], the “Shp2 IC50(nM)” value was “one of 26 and 27 is 10 and the other is 8”. In turn, `CO[C@H]1C[C@@H]2COc3c(Sc4cnc(N5CCC6(CC5)CO[C@@H](C)[C@H]6N)c(CO)n4)ccnc3N2C1` [Compound 10, (3-((3S,4S)-4-amino-3-methyl-2-oxa-8-azaspiro[4.5]decan-8-yl)-6-(((6aR,8S)-8-methoxy-6a,7,8,9-tetrahydro-6H-pyrido[3,2-b]pyrrolo[1,2-d][1,4]oxazin-4-yl)thio)pyrazin-2-yl)methanol] returned an IC50 of 10 nM.

`COCOC[C@H]1C[C@H]2COc3c(Sc4cnc(N5CCC6(CC5)CO[C@@H](C)[C@H]6N)cn4)ccnc3N2C1` [Compound 42, (3S,4S)-8-(5-(((6aS,8S)-8-((methoxymethoxy)methyl)-6a,7,8,9-tetrahydro-6H-pyrido[3,2-b]pyrrolo[1,2-d][1,4]oxazin-4-yl)thio)pyrazin-2-yl)-3-methyl-2-oxa-8-azaspiro[4.5]decan-4-amine] registered a 50% inhibitory concentration (IC50) of 5.9 nM.
